Consider 3 compounds from US20240285784A1, “PEPTIDIC CONJUGATES OF SN38 USEFUL IN THE TREATMENT OF CANCER” (FUNDACIÓ INSTITUT DE RECERCA BIOMÈDICA (IRB BARCELONA), priority 2020, published 2024).

For test [1], the system named is diffuse intrinsic pontine glioma HSJD-DIPG-007. Description: cells. The text has this: (§1) Cancer cell lines were obtained from the repository maintained at Hospital Sant Joan de Deu (Barcelona, Spain). Cancer cell lines used in these experiment included cancer types of adult glioma (U373 and U87 cell lines), pediatric gliomas including diffuse intrinsic pontine glioma (HSJD-DIPG-007, HSJD-DIPG-011), and pediatric high-grade glioma (HSJD-GBM-001), retinoblastoma (HSJD-RBT-5, HSJD-RBT-7 and HSJD-RBT-14), Ewing sarcoma (A673), rhabdomyosarcoma (Rd and RH4) and neuroblastoma (LAN-1 and SK-N-JD cell lines and HSJD-NB-004, HSJD-NB-005 and HSJD-NB-016 patient-derived cell models). […] To add the drugs to the cells in culture, SN38-linker A-MiniAp4 (Ia) and irinotecan were prepared in culture medium from stock solutions at concentration 1 mg/mL in water. SN38 was prepared in culture medium from a stock solution at concentration 1 mg/mL in DMSO. […] Activity curves were built for adult glioma cell lines U87 (FIG. 1) and U373 (FIG. 2), pediatric gliomas including DIPG models HSJD-DIPG-007 (FIG. 3) and HSJD-DIPG-011 (FIG. 4), and pediatric high-grade glioma model HSJD-GBM-001 (FIG. 5), retinoblastoma models HSJD-RBT-5 (FIG. 6), HSJD-RBT-7 (FIG. 7) and HSJD-RBT-14 (FIG. 8), Ewing sarcoma cell line A673 (FIG. 9), rhabdomyosarcoma cell lines Rd (FIG. 10) and RH4 (FIG. 11), neuroblastoma cell lines LAN-1 (FIG. 12) and SK-N-JD (FIG. 13) and neuroblastoma patient-derived cell models HSJD-NB-004 (FIG. 14), HSJD-NB-005 (FIG. 15) and HSJD-NB-016 (FIG. 16). The established IC50 values are in Table 3.
Cancer cell lines used in these experiments were pediatric gliomas including diffuse intrinsic pontine glioma HSJD-DIPG-007, and pediatric high-grade glioma HSJD-GBM-001. […] To add the drugs to the cells in culture, SN38-Linker A-MiniAp4 (Ia) and SN38-Linker B-THRre were prepared in culture medium from stock solutions at concentration 1 mg/mL in water. SN38 was prepared in culture medium from a stock solution at concentration 1 mg/mL in DMSO. […] Activity curves were built for cells HSJD-DIPG-007 (FIG. 20) and HSJD-GBM-001 (FIG. 21).
Cancer cell lines used in these experiments were pediatric gliomas including diffuse intrinsic pontine glioma HSJD-DIPG-007, and pediatric high-grade glioma HSJD-GBM-001. […] All compounds were prepared in culture medium from stock solutions at concentration 1 mg/mL in water. […] Activity curves were built for cells HSJD-DIPG-007 (FIG. 22) and HSJD-GBM-001 (FIG. 23).
Cancer cell line used in these experiment was HSJD-DIPG-007.

The test system of test [2] is rhabdomyosarcoma cell line RH4. Description: MTS cell viability assay, rhabdomyosarcoma cell line RH4. The class given is cell-based. To be noted: 72 h incubation, Example 9, Table 3, read-out: IC50 values against cancer cell lines.
Source text: as §1

Test [3] has as its system neuroblastoma cell line LAN-1. Description: MTS cell viability assay, neuroblastoma cell line LAN-1. The test is classed as cell-based. Particulars: Example 9, Table 3, read-out: IC50 values against cancer cell lines.
Source text: as §1

The subject of test [4] is neuroblastoma patient-derived cell model HSJD-NB-004. Description: MTS cell viability assay, neuroblastoma model HSJD-NB-004. The class given is cell-based. To be noted: 72 h incubation, Example 9, Table 3, read-out: IC50 values against cancer cell lines.
Source text: as §1
In general terms: Tetrazolium assays rely on reduction of a dye to a coloured formazan, in cell work by metabolically active cells.

The subject of test [5] is neuroblastoma patient-derived cell model HSJD-NB-005. Description: MTS cell viability assay, neuroblastoma model HSJD-NB-005. The class given is cell-based. To be noted: 72 h incubation, Example 9, Table 3, read-out: IC50 values against cancer cell lines.
Source text: as §1

In test [6] the test system is neuroblastoma patient-derived cell model HSJD-NB-016. Description: MTS cell viability assay, neuroblastoma model HSJD-NB-016. The test is classed as cell-based. To be noted: 72 h incubation, Example 9, Table 3, read-out: IC50 values against cancer cell lines.
Source text: as §1

Setting [7] is: HSJD-DIPG-007, 72 h, read-out: IC50 values against cancer cell lines.

Each structure is given as a SMILES string. Where two headings read alike, the source gives them in different places. *1 amine or outer side, *2 acyl side, *3 side chain or, on linkers, in order; H or OH if unused. Where a SMILES comes first, the peptide text is derived from it. Bridges are numbered along the chain shown (N, C = ends). [ ]: non-standard residue; d: D form. The star is where a group is joined. X1 = CCc1c2c(nc3ccc(O)cc13)-c1cc3c(c(=O)n1C2)COC(=O)[C@@]3(CC)OC(=O)CCCCn1cc(CCCC(=O)NCCCOCCOCCOCCCN*)nn1; Suc = O=C(CCC(=O)[*:2])[*:1]; Dap = NC[C@H](N)C(=O)O

For the compound `CCc1c2c(nc3ccc(O)cc13)-c1cc3c(c(=O)n1C2)COC(=O)[C@@]3(CC)OC(=O)CCCCn1cc(CCCC(=O)NCCCOCCOCCOCCCNC(=O)CCC(=O)N[C@H]2CNC(=O)C[C@@H](C(N)=O)NC(=O)[C@H](CC(C)C)NC(=O)[C@H](C)NC(=O)[C@H]([C@@H](C)O)NC(=O)[C@H](CCC(=O)O)NC(=O)[C@@H]3CCCN3C(=O)[C@H](C)NC(=O)[C@H](CCCCN)NC2=O)nn1` [SN38-linker A-MiniAp4 (Ia)] ({X1-Suc}-[Dap]KAPETALD-NH2; lactam 1-9), the IC50 in test [1] (read-out: IC50 values (μM) against cancer cell lines, HSJD-DIPG-007, MTS, 72 h incubation, Example 12, Table 5) amounted to 0.0203 µM; in test [1] (read-out: IC50 values against cancer cell lines, HSJD-DIPG-007, MTS, 72 h incubation, Example 9, Table 3), 0.0342 µM; in test [1] (read-out: IC50 values of compounds, HSJD-DIPG-007, MTS, 72 h incubation, Example 11, Table 4) it was 0.0107 µM; in test [1] (read-out: IC50 values, HSJD-DIPG-007, MTS, 72 h incubation, Example 25, Table 8), 0.0278 µM; in test [2] it was 81.5 nM; in test [3] (72 h incubation), 21.6 nM. Also, the IC50 came to 76.9 nM in test [4], 51.5 nM in test [5] and 25.6 nM in test [6].
Regarding `CCc1c2c(nc3ccc(OC(=O)N4CCC(N5CCCCC5)CC4)cc13)-c1cc3c(c(=O)n1C2)COC(=O)[C@]3(O)CC` [Irinotecan], the IC50 in test [1] (setting [7]) worked out at 4.75 µM; in test [2] (Rhabdomyosarcoma cell), 10800 nM; in test [3] (LAN1, 72 h incubation), 7000 nM; in test [4], 9840 nM; in test [5] it was 8200 nM; in test [6] it was 659 nM.
Take `CCc1c2c(nc3ccc(O)cc13)-c1cc3c(c(=O)n1C2)COC(=O)[C@]3(O)CC` [SN38, 7-ethyl-10-hydroxy-camptothecin]: the IC50 was 0.000739 µM in test [1] (HSJD-DIPG-007, 72 h, read-out: IC50 values (μM)); 0.00113 µM in test [1] (setting [7]); 0.00151 µM in test [1] (HSJD-DIPG-007, 72 h, read-out: IC50 values of compounds); 14.8 nM in test [2] (Rhabdomyosarcoma cell); 1.96 nM in test [3] (LAN1, 72 h incubation); 231 nM in test [4]. Moreover, the IC50 in test [5] came to 12.5 nM; in test [6], 12.3 nM.

Broadly, the IC50 is the concentration that gives 50% inhibition.
